The numbers were not newly measured in patent US10006071B2, “Methods to control secretion of metabolic byproducts in algae to enhance recovery of said byproducts” (Institute for Systems Biology, priority 2010, dated 2018), which cites them from elsewhere.

Each structure is given as a SMILES string. Read-outs that look alike come from different tables or passages of the source. Residues, ends and D or L forms follow the SMILES beside them. *: point of attachment. Cbz = O=C(OCc1ccccc1)*; CH2F = FC*

The subject of series [1] is caspase-3.
The subject of series [2] is Caspase-1.
Series [3] has as its system Caspase-8.
Series [4] relates to Caspase-9.
Series [5] relates to Caspase-6.
Series [6] concerns Metacaspase.
For series [7], the system named is apoptosis.
Series [8] relates to metacaspase.

Take `CC(=O)N[C@H](C(=O)N[C@@H](C)C(=O)N[C@@H](CC(=O)O)C(=O)CF)C(C)C` [Ac-VAD-FMK] (HELM PEPTIDE1{[ac].V.A.D.[FC[*:1]]}$$$$V2.0): the “inhibition of caspase-3” value in series [1] is “inhibit”. Besides, the “inhibition of caspase-1” value in series [2] was “inhibited”. In addition, the “inhibition of caspase-8” value in series [3] is recorded as “inhibited”. The “inhibition of caspase-9” value in series [4] is “inhibited”. Moreover, in series [5], the “inhibition of caspase-6” value was “inhibited”.

Regarding `CC(=O)N[C@@H](Cc1ccc(O)cc1)C(=O)N[C@@H](CCC(=O)O)C(=O)N[C@H](C(=O)N[C@@H](CC(=O)O)C(=O)CCl)C(C)C` [Ac-YEVD-CMK] (HELM PEPTIDE1{[ac].Y.E.V.D.[ClC[*:1]]}$$$$V2.0), the “inhibition of caspase-3” value in series [1] is reported as “inhibit”. In addition, in series [2], the “inhibition of caspase-1” value is recorded as “inhibited”. In series [3], the “inhibition of caspase-8” value is reported as “inhibited”. The “inhibition of caspase-9” value in series [4] is given as “inhibited”. The “inhibition of caspase-6” value in series [5] was “inhibited”.

Turning to `CC(=O)N[C@@H](CC(=O)O)C(=O)N[C@@H](CCC(=O)O)C(=O)N[C@H](C(=O)N[C@H](C=O)CC(=O)O)C(C)C` [AcDEVD-CHO], in series [1] (Chlorella saccharophila), the “inhibition of caspase-3” value is reported as “inhibit”. In addition, the inhibition of metacaspase entry in series [6] is given as “inhibited”.

Turning to `COC(=O)CC(NC(=O)OC(C)(C)C)C(=O)CF` [Boc D-FMK], the “inhibition of caspase-3” value in series [1] is recorded as “inhibit”. Moreover, the “inhibition of caspase-1” value in series [2] was “inhibited”. The “inhibition of caspase-8” value in series [3] is “inhibited”. Also, the “inhibition of caspase-9” value in series [4] is “inhibited”. Besides, the “inhibition of caspase-6” value in series [5] was “inhibited”.

As for `O=C(O)CN(CCN(CC(=O)O)CC(=O)O)CCN(CC(=O)O)CC(=O)O` [DTPA, diethylene triamine pentaacetic acid], the effect on apoptosis entry in series [7] is “permits apoptosis to occur”.

Regarding `c1ccc(CN(CCN(Cc2ccccn2)Cc2ccccn2)Cc2ccccn2)nc1` [TPEN, N,N,N′,N′-tetrakis(2-pyridylmethyl)ethylenediamine], the effect on apoptosis result in series [7] is on record as “permits apoptosis to occur”.

Turning to `COC(=O)CC[C@H](NC(=O)[C@H](CC(=O)OC)NC(=O)OCc1ccccc1)C(=O)N[C@H](C(=O)N[C@@H](CC(=O)OC)C(=O)CF)C(C)C` [Z-DEVD-FMK], the inhibition of metacaspase result in series [8] is “inhibits”; in series [6], “inhibited”.

As for `[Zn+2]` [Zn^+2], the “inhibition of caspase-3” value in series [1] is on record as “potent inhibitor”. The effect on apoptosis result in series [7] was “inhibit apoptosis”.

For `COC(=O)C[C@H](NC(=O)[C@H](C)NC(=O)[C@@H](NC(=O)OCc1ccccc1)C(C)C)C(=O)CF` [zVAD-fmk] (Cbz-Val-Ala-Asp(OMe)-CH2F), in series [6], the inhibition of metacaspase result is listed as “inhibited”.
